Results: ChEMBL document CHEMBL3046559, “Sterile oat (Avena sterilis L.) cross-resistance profile to ACCase-inhibiting herbicides in Greece” (2012)

Columns and labels:
Type in all cases: functional
[1] = system: Avena sterilis; assay: Herbicidal activity against Avena sterilis accession P01 assessed as weed survival at 8 times field recommended herbicide dose
[2] = system: Avena sterilis; assay: Herbicidal activity against Avena sterilis accession P08 assessed as weed survival at 1 times field recommended herbicide dose
[3] = system: Avena sterilis; assay: Herbicidal activity against Avena sterilis accession P02 assessed as weed survival at 1 times field recommended herbicide dose
[4] = system: Avena sterilis; assay: Herbicidal activity against Avena sterilis accession P22 assessed as weed survival at 4 times field recommended herbicide dose
[5] = system: Avena sterilis; assay: Herbicidal activity against Avena sterilis accession P12 assessed as weed survival at 1 times field recommended herbicide dose
[6] = system: Avena sterilis; assay: Herbicidal activity against Avena sterilis accession P05 assessed as weed survival at 32 times field recommended herbicide dose
[7] = system: Avena sterilis; assay: Herbicidal activity against Avena sterilis accession P04 assessed as weed survival at 16 times field recommended herbicide dose
[8] = system: Avena sterilis; assay: Herbicidal activity against Avena sterilis accession P04 assessed as induction of weed mortality
[9] = system: Avena sterilis; assay: Herbicidal activity against Avena sterilis accession P20 assessed as weed survival at 16 times field recommended herbicide dose
[10] = system: Avena sterilis; assay: Herbicidal activity against Avena sterilis accession P06S assessed as weed survival at 1/16 times field recommended herbicide dose
[11] = system: Avena sterilis; assay: Herbicidal activity against Avena sterilis accession P18 assessed as induction of weed mortality
[12] = system: Avena sterilis; assay: Herbicidal activity against Avena sterilis accession P09 assessed as weed survival at 8 times field recommended herbicide dose
[13] = system: Avena sterilis; assay: Herbicidal activity against Avena sterilis accession P12 assessed as weed survival at 4 times field recommended herbicide dose
[14] = system: Avena sterilis; assay: Herbicidal activity against Avena sterilis accession P18 assessed as weed survival at 4 times field recommended herbicide dose
[15] = system: Avena sterilis; assay: Herbicidal activity against Avena sterilis accession P13S assessed as weed survival at 1/8 times field recommended herbicide dose
[16] = system: Avena sterilis; assay: Herbicidal activity against Avena sterilis accession P03 assessed as weed survival at 4 times field recommended herbicide dose
[17] = system: Avena sterilis; assay: Herbicidal activity against Avena sterilis accession P08 assessed as weed survival at 32 times field recommended herbicide dose
[18] = system: Avena sterilis; assay: Herbicidal activity against Avena sterilis accession P12 assessed as induction of weed mortality
[19] = system: Avena sterilis; assay: Herbicidal activity against Avena sterilis accession P14 assessed as weed survival at 8 times field recommended herbicide dose
[20] = system: Avena sterilis; assay: Herbicidal activity against Avena sterilis accession P10S assessed as weed survival at 1/32 times field recommended herbicide dose
[21] = system: Avena sterilis; assay: Herbicidal activity against Avena sterilis accession P10S assessed as weed survival at 1/4 times field recommended herbicide dose
[22] = system: Avena sterilis; assay: Herbicidal activity against Avena sterilis accession P09 assessed as weed survival at 4 times field recommended herbicide dose
[23] = system: Avena sterilis; assay: Herbicidal activity against Avena sterilis accession P06S assessed as induction of weed mortality
[24] = system: Avena sterilis; assay: Herbicidal activity against Avena sterilis accession P22 assessed as induction of weed mortality
[25] = system: Avena sterilis; assay: Herbicidal activity against Avena sterilis accession P05 assessed as weed survival at 16 times field recommended herbicide dose
[26] = system: Avena sterilis; assay: Herbicidal activity against Avena sterilis accession P07 assessed as weed survival at 4 times field recommended herbicide dose
[27] = system: Avena sterilis; assay: Herbicidal activity against Avena sterilis accession P14 assessed as weed survival at 4 times field recommended herbicide dose
[28] = system: Avena sterilis; assay: Herbicidal activity against Avena sterilis accession P21S assessed as induction of weed mortality
[29] = system: Avena sterilis; assay: Herbicidal activity against Avena sterilis accession P07 assessed as weed survival at 16 times field recommended herbicide dose
[30] = system: Avena sterilis; assay: Herbicidal activity against Avena sterilis accession P03 assessed as weed survival at 1 times field recommended herbicide dose
[31] = system: Avena sterilis; assay: Herbicidal activity against Avena sterilis accession P21S assessed as weed survival at 1 times field recommended herbicide dose
[32] = system: Avena sterilis; assay: Herbicidal activity against Avena sterilis accession P20 assessed as weed survival at 32 times field recommended herbicide dose
[33] = system: Avena sterilis; assay: Herbicidal activity against Avena sterilis accession P01 assessed as weed survival at 1 times field recommended herbicide dose
[34] = system: Avena sterilis; assay: Herbicidal activity against Avena sterilis accession P18 assessed as weed survival at 8 times field recommended herbicide dose
[35] = system: Avena sterilis; assay: Herbicidal activity against Avena sterilis accession P18 assessed as weed survival at 16 times field recommended herbicide dose
[36] = system: Avena sterilis; assay: Herbicidal activity against Avena sterilis accession P15 assessed as weed survival at 1 times field recommended herbicide dose
[37] = system: Avena sterilis; assay: Herbicidal activity against Avena sterilis accession P01 assessed as weed survival at 32 times field recommended herbicide dose
[38] = system: Avena sterilis; assay: Herbicidal activity against Avena sterilis accession P18 assessed as weed survival at 32 times field recommended herbicide dose
[39] = system: Avena sterilis; assay: Herbicidal activity against Avena sterilis accession P11 assessed as weed survival at 1 times field recommended herbicide dose
[40] = system: Avena sterilis; assay: Herbicidal activity against Avena sterilis accession P15 assessed as weed survival at 4 times field recommended herbicide dose
[41] = system: Avena sterilis; assay: Herbicidal activity against Avena sterilis accession P22 assessed as weed survival at 1 times field recommended herbicide dose
[42] = system: Avena sterilis; assay: Herbicidal activity against Avena sterilis accession P07 assessed as weed survival at 32 times field recommended herbicide dose
[43] = system: Avena sterilis; assay: Herbicidal activity against Avena sterilis accession P14 assessed as weed survival at 16 times field recommended herbicide dose
[44] = system: Avena sterilis; assay: Herbicidal activity against Avena sterilis accession P12 assessed as weed survival at 8 times field recommended herbicide dose
[45] = system: Avena sterilis; assay: Herbicidal activity against Avena sterilis accession P22 assessed as weed survival at 8 times field recommended herbicide dose
[46] = system: Avena sterilis; assay: Herbicidal activity against Avena sterilis accession P06S assessed as weed survival at 1/8 times field recommended herbicide dose
[47] = system: Avena sterilis; assay: Herbicidal activity against Avena sterilis accession P17 assessed as weed survival at 8 times field recommended herbicide dose
[48] = system: Avena sterilis; assay: Herbicidal activity against Avena sterilis accession P13S assessed as weed survival at 1/32 times field recommended herbicide dose
[49] = system: Avena sterilis; assay: Herbicidal activity against Avena sterilis accession P05 assessed as weed survival at 1 times field recommended herbicide dose
[50] = system: Avena sterilis; assay: Herbicidal activity against Avena sterilis accession P15 assessed as weed survival at 32 times field recommended herbicide dose
[51] = system: Avena sterilis; assay: Herbicidal activity against Avena sterilis accession P13S assessed as weed survival at 1/16 times field recommended herbicide dose
[52] = system: Avena sterilis; assay: Herbicidal activity against Avena sterilis accession P02 assessed as weed survival at 8 times field recommended herbicide dose
[53] = system: Avena sterilis; assay: Herbicidal activity against Avena sterilis accession P16 assessed as weed survival at 32 times field recommended herbicide dose
[54] = system: Avena sterilis; assay: Herbicidal activity against Avena sterilis accession P13S assessed as induction of weed mortality
[55] = system: Avena sterilis; assay: Herbicidal activity against Avena sterilis accession P05 assessed as weed survival at 4 times field recommended herbicide dose
[56] = system: Avena sterilis; assay: Herbicidal activity against Avena sterilis accession P11 assessed as weed survival at 16 times field recommended herbicide dose
[57] = system: Avena sterilis; assay: Herbicidal activity against Avena sterilis accession P05 assessed as weed survival at 8 times field recommended herbicide dose
[58] = system: Avena sterilis; assay: Herbicidal activity against Avena sterilis accession P15 assessed as weed survival at 16 times field recommended herbicide dose

C#CCOC(=O)[C@@H](C)Oc1ccc(Oc2ncc(Cl)cc2F)cc1 [CLODINAFOP PROPARGYL]
Survival [1]: 80%
Survival [2]: 100%
Survival [3]: 97%
Survival [4]: 43%
Survival [5]: 100%
Survival [6]: 0%
Survival [7]: 73%
GR50 [8]: >1312 gAi/ha
Survival [9]: 57%
Survival [10]: 97%
GR50 [11]: 520 gAi/ha
Survival [12]: 0%
Survival [13]: 97%
Survival [14]: 80%
Survival [15]: 63%
Survival [16]: 100%
Survival [17]: 67%
GR50 [18]: >1312 gAi/ha
Survival [19]: 80%
Survival [20]: 83%
Survival [21]: 40%
Survival [22]: 20%
GR50 [23]: 9 gAi/ha
GR50 [24]: 122 gAi/ha
Survival [25]: 13%
Survival [26]: 0%
Survival [27]: 87%
GR50 [28]: 11 gAi/ha
Survival [29]: 0%
Survival [30]: 100%
Survival [31]: 0%
Survival [32]: 27%
Survival [33]: 97%
Survival [34]: 73%
Survival [35]: 40%
Survival [36]: 100%
Survival [37]: 40%
Survival [38]: 20%
Survival [39]: 100%
Survival [40]: 100%
Survival [41]: 90%
Survival [42]: 0%
Survival [43]: 77%
Survival [44]: 100%
Survival [45]: 20%
Survival [46]: 80%
Survival [47]: 40%
Survival [48]: 80%
Survival [49]: 90%
Survival [50]: 93%
Survival [51]: 70%
Survival [52]: 97%
Survival [53]: 0%
GR50 [54]: 5 gAi/ha
Survival [55]: 47%
Survival [56]: 97%
Survival [57]: 40%
Survival [58]: 97%
